Molecules are shown by their SMILES. Counter-ions that a name gives are not always drawn.

The values below come from US7538216B2, “Guanidino phenylalanin compounds used as urokinase inhibitors” (Wilex AG, priority 2002, dated 2009).

What all share (format): biochemical
In assay [1] the target is T1, sc-urokinase (Homo sapiens, UniProt P00749).
T1 construct: purchased Ribosepharm GmbH, Haan, Germany
Briefly: In-vitro inhibition of urokinase (chromogenic substrate, Dixon). The following applies: 25° C, pH 8.0; mean of at least 3 determinations. Here is the method:
(§1) In order to determine the activity of the inhibitor, 200 μl of Tris buffer (0.05 mol/l, containing the inhibitor, 0.154 mol of NaCl/l, 5% ethanol, pH 8.0), 25 μl of substrate (Pefachrome UK or Bz-βAla-Gly-Arg-pNA in H2O; Pentapharm Ltd., Basle, Switzerland) and 50 μl of sc-urokinase (Ribosepharm GmbH, Haan, Germany) were incubated at 25° C. After 3 min, the reaction was terminated by adding 25 μl of acetic acid (50%) and the absorption was determined at 405 nm using a Microplate Reader (MR 5000, Dynatech, Denkendorf, Germany). The Ki values were determined in accordance with Dixon by means of linear regression using a computer program. The Ki values are the means of at least 3 determinations; the standard deviation was less than 25%.

The target of assay [2] is T2, plasmin (Homo sapiens, UniProt P00747).
T2 construct: uPA mediates the proteolytic cleavage of plasminogen to give plasmin
T2 sequence (P00747 581-810 limits assumed, species assumed): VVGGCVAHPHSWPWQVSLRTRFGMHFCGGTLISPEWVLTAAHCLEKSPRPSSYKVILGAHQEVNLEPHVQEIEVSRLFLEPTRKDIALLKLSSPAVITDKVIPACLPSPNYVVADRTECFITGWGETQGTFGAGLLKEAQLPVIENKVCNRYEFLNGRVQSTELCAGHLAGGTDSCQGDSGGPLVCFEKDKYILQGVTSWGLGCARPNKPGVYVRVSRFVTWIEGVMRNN
T2 sequence (P00747 97-580 partner limits assumed, species assumed): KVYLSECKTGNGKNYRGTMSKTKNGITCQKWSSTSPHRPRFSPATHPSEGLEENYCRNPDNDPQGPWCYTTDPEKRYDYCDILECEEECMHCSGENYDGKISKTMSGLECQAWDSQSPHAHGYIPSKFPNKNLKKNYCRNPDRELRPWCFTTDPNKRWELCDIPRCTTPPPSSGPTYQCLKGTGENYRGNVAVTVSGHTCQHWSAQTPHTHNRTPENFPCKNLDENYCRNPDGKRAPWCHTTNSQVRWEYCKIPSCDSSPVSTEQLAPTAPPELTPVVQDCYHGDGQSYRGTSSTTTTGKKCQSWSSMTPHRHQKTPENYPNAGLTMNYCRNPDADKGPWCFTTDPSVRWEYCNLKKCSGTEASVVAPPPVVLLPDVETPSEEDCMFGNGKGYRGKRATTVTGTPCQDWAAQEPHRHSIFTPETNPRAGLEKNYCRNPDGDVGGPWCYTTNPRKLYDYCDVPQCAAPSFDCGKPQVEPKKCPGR
Put plainly: In-vitro inhibition of serine proteases of the trypsin type: plasmin. As to the method: as §1
(§2) The inhibitory effect for the enzymes employed was determined in accordance with the principle described in Example 3.

The target of assay [3] is thrombin (Homo sapiens, UniProt P00734). Put plainly: In-vitro inhibition of serine proteases of the trypsin type: thrombin. Here is the method: as §1, §2

Turning to `CCOC(=O)N1CCN(C(=O)[C@H](Cc2cccc(NC(=N)N)c2)NS(=O)(=O)c2c(C(C)C)cc(C(C)C)cc2C(C)C)CC1` [Example 1, Nα-2,4,6-triisopropylphenylsulfonyl-3-guanidino-(L)-phenylalanine-4-ethoxycarbonylpiperazine hydrochloride], the Ki was 470 nM in assay [1], 3.8 µM in assay [2] and at least 12 µM in assay [3].

By Ki is commonly meant the dissociation constant of the complex between target and ligand, obtained from inhibition or displacement.
